Measured values reported in patent publication US20160022636A1, “PHYSIOLOGICAL LIGANDS FOR GPR139” (JANSSEN PHARMACEUTICA NV, priority 2013, published 2016).
Where “and” joins values, the source holds several entries; their conditions need not be identical. Equal values may be shown once.

Assays:
Type in all cases: biochemical
GO2Q alone = assay: GTPγS binding assay, control membranes from COS7 cells expressing GO2Q alone (Ct-GO2Q); details: 1 mM final concentration; single wells of triplicate; COS7 membranes with GO2Q alone (control panel)
Excerpt: (§1) Human (A and B) or mouse (C and D) GPR139 were co-transfected with chimeric G-protein GO2Q into COS7 cells. Cell membranes from transfected cells were used in GTPγS binding studies using various ligands at different concentrations to stimulate GPR139. Membranes from COS7 cells transfected by GO2Q were used as the controls (E and F).
(§2) In order identify the ligands for GPR139 two improvements in the detection assay were made to allow for the ligands to be detected. First, we chose to use a GTPγS binding assay instead of using live cultured cells. The GTPγS binding assay is a cell free system that uses the cell membrane of the cell(s) of interest rather than the live cell(s). One advantage of this assay is that potential ligands present in the cell culture media are washed away when the cell membrane is prepared. This reduces the basal level of signal and increase the chance of detecting receptor ligands when assessing compounds that activate the receptor. Second, a GO2Q chimeric G-protein was created to be co-expressed with GPR139 in order to increase the signal-to-noise ratio in the GTPγS binding assay. Historically, the Gi, Go coupled GPCRs offer much greater signal-to-noise ratio in GTPγS binding studies. For Gs and Gq coupled GPCRs, although ligand-stimulated specific signals can be detected in a GTPγS binding assay, the signal-to-noise ratios are often very small. To address this a chimeric GO2-Gq chimeric G-protein, GO2Q, with the N-terminus from Go2 protein and the C-terminus from Gq protein.
(§3) To test for compounds that activate GPR139, different amino acids and their derivatives (Table 2) were tested as ligands in the GTPγS binding assay using cell membranes from COS7 cells co-expressing GPR139 and GO2Q. Cell membrane from COS7 cells expressing GO2Q alone or co-expressing other GPCRs were also tested in GTPγS binding assay in parallel as controls. Each compound was tested in triplicate.

GPR139 [1] = molecular target: T1, GPR139 (Homo sapiens, UniProt Q6DWJ6); assay: GTPγS binding assay, membranes from COS7 cells co-expressing GPR139 and GO2Q, single concentration screen; design: expressed in transfected cells; host or cells: COS7; details: for Activation levels of GPR139 (GTPγS binding signal), GPR139-GO2Q: 1 mM final concentration, single wells of triplicate, COS7 membranes co-expressing GPR139 and GO2Q
T1 sequence (Q6DWJ6 1-353): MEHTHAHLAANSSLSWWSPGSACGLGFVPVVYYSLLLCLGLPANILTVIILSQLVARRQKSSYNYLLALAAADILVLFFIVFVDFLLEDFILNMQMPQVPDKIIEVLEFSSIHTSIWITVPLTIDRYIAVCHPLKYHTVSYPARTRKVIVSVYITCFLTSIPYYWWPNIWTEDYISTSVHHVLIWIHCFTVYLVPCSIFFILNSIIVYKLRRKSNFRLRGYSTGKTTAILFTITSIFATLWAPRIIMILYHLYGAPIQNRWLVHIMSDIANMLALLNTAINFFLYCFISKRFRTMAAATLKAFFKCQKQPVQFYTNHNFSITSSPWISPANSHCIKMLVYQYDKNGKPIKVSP
Experimental: as §2, §3

mouse GPR139 = molecular target: T2, mouse GPR139 (Mus musculus, UniProt Q80UC8); assay: GTPγS binding dose response, COS7 membranes co-transfected with mouse GPR139 and GO2Q; details: mouse GPR139, FIG. 2 C and D
T2 construct: expressed in transfected cells; host or cells: COS7
T2 sequence (Q80UC8 1-345): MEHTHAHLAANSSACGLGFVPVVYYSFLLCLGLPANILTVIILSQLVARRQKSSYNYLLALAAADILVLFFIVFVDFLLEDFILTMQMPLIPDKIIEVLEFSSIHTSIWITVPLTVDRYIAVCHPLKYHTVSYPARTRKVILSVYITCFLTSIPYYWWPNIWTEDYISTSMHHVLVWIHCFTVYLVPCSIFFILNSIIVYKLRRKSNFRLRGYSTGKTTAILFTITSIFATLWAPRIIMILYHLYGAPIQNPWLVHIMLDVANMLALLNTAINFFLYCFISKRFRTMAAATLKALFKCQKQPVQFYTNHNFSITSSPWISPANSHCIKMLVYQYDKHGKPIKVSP
Excerpt: as §1, with “FIG. 2: Tryptophan, phenylalanine, and their derivatives activate GPR139. Human” for “Human”

GPR139 [2] = molecular target: T1, GPR139; assay: GTPγS binding dose response, COS7 membranes co-transfected with human GPR139 and GO2Q; design: expressed in transfected cells; host or cells: COS7; details: human GPR139, FIG. 2 A and B
Excerpt: as §1, with “FIG. 2: Tryptophan, phenylalanine, and their derivatives activate GPR139. Human” for “Human”

Structure (SMILES)	Activation levels (GTPγS binding signal), Ct-GO2Q (GO2Q alone)	Activation levels of GPR139 (GTPγS binding signal), GPR139-GO2Q (GPR139 [1])	dose response activation of GPR139 (in words) (mouse GPR139)	activation of GPR139 in GTPγS binding assay (in words) (GPR139 [1]; 1 mM)	dose response activation of GPR139 (in words) (GPR139 [2])
NCCc1c[nH]cn1 [HA, histamine]	2186 and 2204 and 2199	2737 and 2863 and 2899	–	–	–
O=C(O)[C@@H]1C[C@@H](O)CN1 [HO-Pro]	2166 and 2152 and 2189	2825 and 2797 and 3109	–	–	–
N[C@@H](Cc1c[nH]cn1)C(=O)O [His]	2308 and 2259 and 2197	2640 and 2499	–	–	–
CC[C@H](C)[C@H](N)C(=O)O [Ile]	2266 and 2222 and 2253	2760 and 2542 and 2903	–	–	–
CC(C)C[C@H](N)C(=O)O [Leu]	2194 and 2213 and 2167	2621 and 2544 and 2437	–	–	–
NCCCC[C@H](N)C(=O)O [Lys]	2400 and 2138 and 2041	2433 and 2617 and 2589	–	–	–
CSCC[C@H](N)C(=O)O [Met]	2173 and 2307 and 2276	2657 and 2829 and 2802	–	–	–
NCC(O)c1ccc(O)cc1 (centres unmarked) [Octopamine]	2087 and 2140 and 2142	2554 and 2675 and 2831	–	–	–
O=C(O)[C@@H]1CCCN1 [Pro]	2256 and 2235 and 2329	2719 and 2657 and 2786	–	–	–
N[C@@H](CO)C(=O)O [Ser]	1975 and 2036 and 2164	2605 and 2458 and 2545	–	–	–
NCCc1c[nH]c2ccc(O)cc12 [Seretonin]	2356 and 2154 and 2332	2839 and 2852 and 2920	–	–	–
C[C@@H](O)[C@H](N)C(=O)O [Thr]	2210 and 2213 and 2008	2547 and 2507 and 2558	–	–	–
NCCc1c[nH]c2ccccc12 [Tryptamine, tryptamine]	2025 and 2048 and 2088	6757 and 7686 and 7742	specifically activate GPR139 in a dose-responsive manner	activated GPR139	specifically activate GPR139 in a dose-responsive manner
N[C@@H](Cc1ccc(O)cc1)C(=O)O [Tyr]	2192 and 2191 and 2186	2752 and 2715 and 2921	–	–	–
NCCc1ccc(O)cc1 [Tyramine]	2132 and 2277 and 2369	2883 and 2932 and 2873	–	–	–
CC(C)[C@H](N)C(=O)O [Val]	2072 and 2083 and 1977	2632 and 2689 and 2533	–	–	–
